{"source": "patent US20260297060A1", "about": "“COMPOUNDS FOR THE DEGRADATION OF MUTANT BRAF” (C4 THERAPEUTICS, INC., priority 2023, published 2026)", "key": {"[1]": {"tested_on": "A375 human melanoma xenografts", "assay": "Example 9 efficacy study Part I in A375 human melanoma xenografts (tumor volume, T/C, TGI)", "assay_type": "in vivo, BALB/c nude mice", "settings": "10 mg/kg, p.o., BID × 14 days; for Tumor Size on PG-D14: Mean ± SEM; for TGI (Tumor Growth Inhibition): PG-D14; for T/C: PG-D14, treated/control average tumor volume", "procedure": "For efficacy study Part I, agents were tested in the A375 human melanoma xenografts. Compound 218 and Compound 157 were administered to BALB/c nude mice bearing A375 xenografts from day 0 and dosed twice a day (BID) for 14 days. Compound 218 and Compound 157 were dosed at 10 mg/kg via p.o.. Dabrafenib was administered from day 1 daily (QD) for 14 days and dosed at 100 mg/kg via p.o..\nThe A375 tumor cells were maintained in vitro in DMEM medium supplemented with […] and 1% Penicillin-Streptomycin at 37° C. in an atmosphere of 5% CO2 in air. The tumor cells were routinely subcultured twice weekly. The cells growing in an exponential growth phase were harvested and counted for tumor inoculation.\nEach mouse was inoculated subcutaneously at the right flank with A375 cells (5×10^6) in 0.2 mL of PBS supplemented with Matrigel (PBS: Matrigel=1:1) for tumor development. Animals were grouped for the treatment when the average tumor volume reached 243 mm^3 for efficacy study part I and 413 mm^3 for the PK and PD study part I on day 15, and 271 mm^3 for efficacy part II and 443 mm^3 for the PK and PD part II on day 18, and 463 mm^3 for the PK and PD study part III on day 21. The test articles administration and the animal numbers in each group are shown in the above experimental tables.\nPrior to the onset of drug treatment, mice were measured for tumor size in two dimensions using a caliper, and the tumor volume (mm^3) was calculated using formula V=0.5 a×b^2 where a and b are the long and short diameters of the tumor in mm, respectively. Mice were randomized into different treatment groups based on the tumor volume.\nThe major endpoint was to see if the tumor growth could be delayed or mice could be cured. The tumor size was then used for calculations of T/C value. The T/C value (in percent) is an indication of antitumor effectiveness; T and C are the mean volumes of the treated and control groups, respectively on specified day.\nTGI was calculated for each group using the formula: TGI (%)=[1−(Ti−T0)/(Ci−C0)]×100; Ti is the average tumor volume of a treatment group on a given day, To is the average tumor volume of the treatment group on the day of treatment start, Ci is the average tumor volume of the vehicle control group on the same day with Ti, and C0 is the average tumor volume of the vehicle group on the day of treatment start."}, "[2]": {"tested_on": "A375 human melanoma cancer cell derived xenografts, intracranial", "assay": "Example 12 efficacy study, intracranial A375-luciferase CNS model: survival", "assay_type": "in vivo, BALB/c nude mice", "settings": "10 mg/kg PO/BID; for survival rate / mice that have demonstrated end point cut offs and were terminated: as of day 75; for median survival: dosing stopped on day 120, survival curve up to 200 days; for mice that have demonstrated end point cut offs and were terminated: groups of 8 mice", "procedure": "For the efficacy study, agents were tested in A375 human melanoma cancer cell derived xenografts (CDX). This cell line was isolated from the primary melanoma of a person and is known to have a homozygous BRAF V600E mutation. The A375 tumor cells were maintained in vitro in DMEM medium supplemented with 10% fetal bovine serum and 1% Penicillin-Streptomycin at 37° C. in an atmosphere of 5% CO2 in air. The tumor cells were routinely subcultured twice weekly. The cells growing in an exponential growth phase were harvested and counted for tumor inoculation.\nFor this CNS study, A375 cells with a luciferase tag for tracking tumor cell signal, were injected intracranially into 6-8-week-old female BALB/c nude mice (Zhejiang Vital River Laboratory Animal Co., LTD. Beijing, China). The mice were anaesthetized, restrained, and sterilized prior to surgery. A sagittal cut was made above the anterior parietal and occipital bone with sterilized scalpel, the skull was unrevealed and cleaned with cotton bud, in this case the anterior fontanel could be available. A 2 mm hole was created to the right of the anterior fontanel and 0.5 mm ahead of the coronal on the skull with a cranial drill. Cell suspensions in 20% Matrigel were mixed and aspirated into injector carefully to avoid bubbles and wiped to avoid extracranial tumor genesis. The needle was inserted vertically into the cranial hole and the cell mixture was slowly injected for 2 minutes and held for another minute to decrease the drainage of the cell suspension. The wound was closed, and a subcutaneous injection of 5 mg/kg Meloxicam was given to relieve the pain and continued for 3 days. The mice were monitored closely until they woke up after the surgery. During the study, the care and use of animals was conducted in accordance with the regulations of the Association for Assessment and Accreditation of Laboratory Animal Care (AAALAC). After inoculation, the animals were checked daily for morbidity and mortality. At the time of routine monitoring, the animals would be checked for any effects of tumor growth and treatments on normal behavior such as mobility, food and water consumption, body weight gain/loss, eye/hair matting, and any other abnormal effect.\nThe administration of the test agents began three days after inoculation. CNS tumor-bearing mice were randomly assigned to groups of 8 mice and administered Compound 26 at 10 mg/kg orally (PO) twice a day (BID), Compound 141 at 10 mg/kg PO/BID, encorafenib at 35 mg/kg once a day orally, (PO/QD), or the vehicle alone PO/BID. Measurements for the presence of the A375 luciferase (CRL-1619-LUC2, ATCC, Manassas, VA, USA) cells within the CNS were done with IVIS Lumina III machine. Images were collected twice weekly to follow the growth of the models. The tumor-bearing mice were weighed and intraperitoneally administered luciferin (Perkin Elmer Inc-122799) at a dosage of 150 mg/kg. After 10 min, mice were pre-anesthetized with the mixture gas of oxygen and isoflurane. The bioluminescence value at 15 min post luciferin injection was recorded as the final value and plotted. The endpoint for individual mice was reached when the mouse body weight decreased by 20% when compared to their starting weight."}}}
{"compound": "CCN(C)S(=O)(=O)Nc1ccc(F)c(Oc2ccc3ncc(OC4CC5(CCN(C6CCC(c7cc8c(cc7F)c(N7CCC(=O)NC7=O)nn8C)CC6)CC5)C4)nc3c2)c1C#N", "note": "(single isomer, unassigned) [Compound 218, 7-[2-cyano-3-[[ethyl(methyl)sulfamoyl]amino]-6-fluoro-phenoxy]-2-[[7-[4-[3-(2,4-dioxohexahydropyrimidin-1-yl)-5-fluoro-1-methyl-indazol-6-yl]cyclohexyl]-7-azaspiro[3.5]nonan-2-yl]oxy]quinoxaline]", "values": [{"measurement": "Tumor Volume Trace Over Time", "setting": "[1]; Day 0, Mean ± SEM", "value": "243 ± 5", "unit": "mm^3"}, {"measurement": "Tumor Volume Trace Over Time", "setting": "[1]; Day 3, Mean ± SEM", "value": "240 ± 21", "unit": "mm^3"}, {"measurement": "Tumor Volume Trace Over Time", "setting": "[1]; Day 7, Mean ± SEM", "value": "114 ± 9", "unit": "mm^3"}, {"measurement": "Tumor Volume Trace Over Time", "setting": "[1]; Day 10, Mean ± SEM", "value": "80 ± 9", "unit": "mm^3"}, {"measurement": "Tumor Volume Trace Over Time", "setting": "[1]; Day 14, Mean ± SEM", "value": "60 ± 8", "unit": "mm^3"}, {"measurement": "Tumor Size on PG-D14", "setting": "[1]", "value": "60 ± 8", "unit": "mm^3"}, {"measurement": "TGI (Tumor Growth Inhibition)", "setting": "[1]", "value": 116.68, "unit": "%"}, {"measurement": "T/C", "setting": "[1]", "value": 4.47, "unit": "%"}]}
{"compound": "CCN(C)S(=O)(=O)Nc1ccc(F)c(Oc2ccc3ncn([C@H]4COC5(CCN(C6CC7(C6)CN(c6cc8c(cc6F)c(N6CCC(=O)NC6=O)nn8C)C7)CC5)C4)c(=O)c3c2)c1C#N", "note": "[Compound 26, (3R)-3-[6-[2-cyano-3-[[ethyl(methyl)sulfamoyl]amino]-6-fluoro-phenoxy]-4-oxo-quinazolin-3-yl]-8-[2-[3-(2,4-dioxohexahydropyrimidin-1-yl)-5-fluoro-1-methyl-indazol-6-yl]-2-azaspiro[3.3]heptan-6-yl]-1-oxa-8-azaspiro[4.5]decane]", "values": [{"measurement": "survival rate", "setting": "[2]", "value": 75, "unit": "%"}, {"measurement": "median survival", "setting": "[2]", "value": 91, "unit": "days"}, {"measurement": "mice that have demonstrated end point cut offs and were terminated", "setting": "[2]", "value": "two"}]}
{"compound": "CCN(C)S(=O)(=O)Nc1ccc(F)c(Oc2ccc3ncn(C4CC5(CCN(C6CC7(C6)CN(c6cc8c(cc6F)c(N6CCC(=O)NC6=O)nn8C)C7)CC5)C4)c(=O)c3c2)c1C#N", "note": "(stereo not shown) [Compound 141, 6-[2-cyano-3-[[ethyl(methyl)sulfamoyl]amino]-6-fluoro-phenoxy]-3-[7-[2-[3-(2,4-dioxohexahydropyrimidin-1-yl)-5-fluoro-1-methyl-indazol-6-yl]-2-azaspiro[3.3]heptan-6-yl]-7-azaspiro[3.5]nonan-2-yl]-4-oxo-quinazoline]", "values": [{"measurement": "survival rate", "setting": "[2]", "value": 75, "unit": "%"}, {"measurement": "median survival", "setting": "[2]", "value": 89.5, "unit": "days"}, {"measurement": "mice that have demonstrated end point cut offs and were terminated", "setting": "[2]", "value": 2, "unit": "mice"}]}
{"compound": "CO[C@H]1CCN(S(=O)(=O)Nc2ccc(F)c(Oc3ccc4ncn([C@H]5COC6(CCN(C7CC8(C7)CN(c7cc9c(cc7F)c(N7CCC(=O)NC7=O)nn9C)C8)CC6)C5)c(=O)c4c3)c2C#N)C1", "note": "[Compound 157, (3S)-N-[2-cyano-3-[3-[(3R)-8-[2-[3-(2,4-dioxohexahydropyrimidin-1-yl)-5-fluoro-1-methyl-indazol-6-yl]-2-azaspiro[3.3]heptan-6-yl]-1-oxa-8-azaspiro[4.5]decan-3-yl]-4-oxo-quinazolin-6-yl]oxy-4-fluoro-phenyl]-3-methoxy-pyrrolidine-1-sulfonamide]", "values": [{"measurement": "Tumor Volume Trace Over Time", "setting": "[1]; Day 0, Mean ± SEM", "value": "243 ± 4", "unit": "mm^3"}, {"measurement": "Tumor Volume Trace Over Time", "setting": "[1]; Day 3, Mean ± SEM", "value": "272 ± 12", "unit": "mm^3"}, {"measurement": "Tumor Volume Trace Over Time", "setting": "[1]; Day 7, Mean ± SEM", "value": "191 ± 17", "unit": "mm^3"}, {"measurement": "Tumor Volume Trace Over Time", "setting": "[1]; Day 10, Mean ± SEM", "value": "166 ± 15", "unit": "mm^3"}, {"measurement": "Tumor Volume Trace Over Time", "setting": "[1]; Day 14, Mean ± SEM", "value": "183 ± 37", "unit": "mm^3"}, {"measurement": "Tumor Size on PG-D14", "setting": "[1]", "value": "183 ± 37", "unit": "mm^3"}, {"measurement": "TGI (Tumor Growth Inhibition)", "setting": "[1]", "value": 105.48, "unit": "%"}, {"measurement": "T/C", "setting": "[1]", "value": 13.68, "unit": "%"}]}
